Literature values as cited in US20040202714A1, “Oral pharmaceutical composition” (Daiichi Suntory Pharma Co., Ltd., priority 1999, published 2004).

Legend:
[1] = tested on: penicillin-resistant pneumococci (PRSP)
[2] = tested on: methicillin-sensitive Staphylococcus aureus (MSSA)
genus Bacteroides = settings: anaerobic bacteria such as the genus Bacteroides
Porphyromonas gingivalis = settings: pathogenic bacteria of periodontis
Haemophilus influenzae = settings: gram-negative bacteria such as Haemophilus influenzae
[3] = tested on: bacterial strains from dental infectious diseases; settings: increasingly resistant strains from dental infectious diseases

C[C@@H](O)[C@H]1C(=O)N2C(C(=O)O)=C([C@H]3CCCO3)S[C@H]12 [Compound 1, sodium (+)-(5R, 6S)-6-[(R)-1-hydroxyethyl]-7-oxo-3-[(R)-2-tetrahydrofuryl]4-thia-1-azabicyclo [3.2.0] hept-2-ene-2-carboxylate 5/2 hydrate]
antibacterial activity (Streptococcus pneumoniae): potent antibacterial activity | antibacterial activity (enterococci): potent antibacterial activity | antibacterial activity [1]: potent antibacterial activity | antibacterial activity (oral staphylococci): potent antibacterial activity | antibacterial activity [2]: potent antibacterial activity | antibacterial activity (Streptococcus pyrogenes): potent antibacterial activity | antibacterial spectrum (genus Bacteroides): wide antibacterial spectrum | antibacterial activity (Porphyromonas gingivalis): potent antibacterial activity | antibacterial spectrum (Haemophilus influenzae): wide antibacterial spectrum | antibacterial activity [3]: potent antibacterial activity
